Data reported in ChEMBL document CHEMBL3868618, “Synthesis and biological evaluation of chalcone derivatives containing aminoguanidine or acylhydrazone moieties” (Bioorg Med Chem Lett, 2016).

Tests used:
[1] = tested on: Staphylococcus aureus; test: Antibacterial activity against quinolone-resistant Staphylococcus aureus 3519 measured after 24 hrs by two-fold serial dilution method; assay type: functional; details: Staphylococcus aureus, 3519, 24 h
[2] = tested on: Staphylococcus aureus; test: Antibacterial activity against Staphylococcus aureus 4220 measured after 24 hrs by two-fold serial dilution method; assay type: functional; details: Staphylococcus aureus, 4220, 24 h
[3] = tested on: Salmonella typhimurium; test: Antibacterial activity against Salmonella typhimurium 1926 measured after 24 hrs by two-fold serial dilution method; assay type: functional, Salmonella enterica subsp. enterica serovar Typhimurium; details: Salmonella enterica, 1926, 24 h
[4] = tested on: Staphylococcus aureus; test: Antibacterial activity against quinolone-resistant Staphylococcus aureus 3505 measured after 24 hrs by two-fold serial dilution method; assay type: functional; details: Staphylococcus aureus, 3505, 24 h
[5] = tested on: Escherichia coli; test: Antibacterial activity against Escherichia coli 1924 measured after 24 hrs by two-fold serial dilution method; assay type: functional; details: Escherichia coli, 1924, 24 h
[6] = tested on: Staphylococcus aureus; test: Antibacterial activity against methicillin-resistant Staphylococcus aureus 3506 measured after 24 hrs by two-fold serial dilution method; assay type: functional; details: Staphylococcus aureus, 3506, 24 h
[7] = tested on: Escherichia coli; test: Antibacterial activity against Escherichia coli 1356 measured after 24 hrs by two-fold serial dilution method; assay type: functional; details: Escherichia coli, 1356, 24 h
[8] = tested on: Staphylococcus aureus; test: Antibacterial activity against Staphylococcus aureus 503 measured after 24 hrs by two-fold serial dilution method; assay type: functional; details: Staphylococcus aureus, 503, 24 h
[9] = tested on: Staphylococcus aureus; test: Antibacterial activity against methicillin-resistant Staphylococcus aureus 3167 measured after 24 hrs by two-fold serial dilution method; assay type: functional; details: Staphylococcus aureus, 3167, 24 h
[10] = tested on: Candida albicans; test: Antifungal activity against Candida albicans 7535 measured after 24 hrs by two-fold serial dilution method; assay type: functional; details: Candida albicans, 7535, 24 h
[11] = tested on: Streptococcus mutans; test: Antibacterial activity against Streptococcus mutans 3065 measured after 24 hrs by two-fold serial dilution method; assay type: functional; details: Streptococcus mutans, 3065, 24 h
[12] = tested on: Mus musculus; test: Antiinflammatory activity in mouse assessed as inhibition of xylene-induced ear edema at 100 mg/kg, ip administered 30 mins before xylene challenge measured after 30 mins relative to DMSO-control; assay type: functional
[13] = tested on: Pseudomonas aeruginosa; test: Antibacterial activity against Pseudomonas aeruginosa 2742 measured after 24 hrs by two-fold serial dilution method; assay type: functional; details: Pseudomonas aeruginosa, 2742, 24 h
[14] = tested on: Staphylococcus aureus; test: Antibacterial activity against Staphylococcus aureus 209 measured after 24 hrs by two-fold serial dilution method; assay type: functional; details: Staphylococcus aureus, 209, 24 h

N=C(N)N/N=C/c1ccc(/C=C/C(=O)c2ccc(Cl)cc2)cc1
4 µg/mL: MIC [3] | MIC [4] | MIC [8] | MIC [9] | MIC [10] | MIC [11] | MIC [14]
2 µg/mL: MIC [2] | MIC [5] | MIC [6] | MIC [13]
8 µg/mL: MIC [1] | MIC [7]
56.4%: inhibition in vivo at 100 mg/kg [12]

O=C(/C=C/c1ccc(/C=N/NC(=O)c2ccncc2)cc1)c1ccc(Br)cc1
55.7%: inhibition in vivo at 100 mg/kg [12]
64 µg/mL: MIC [1] | MIC [6]
> 64 µg/mL: MIC [2] | MIC [3] | MIC [4] | MIC [5] | MIC [7] | MIC [8] | MIC [9] | MIC [10] | MIC [11] | MIC [13] | MIC [14]

O=C(N/N=C/c1ccc(/C=C/C(=O)c2ccccc2F)cc1)c1ccncc1
> 64 µg/mL: MIC [3] | MIC [10] | MIC [13]
16 µg/mL: MIC [11]
51.2%: inhibition in vivo at 100 mg/kg [12]
64 µg/mL: MIC [1] | MIC [2] | MIC [4] | MIC [5] | MIC [6] | MIC [7] | MIC [8] | MIC [9] | MIC [14]

O=C(N/N=C/c1ccc(/C=C/C(=O)c2ccccc2F)cc1)c1ccccc1
> 64 µg/mL: MIC [1] | MIC [2] | MIC [3] | MIC [4] | MIC [5] | MIC [7] | MIC [8] | MIC [10] | MIC [11] | MIC [13] | MIC [14]
64 µg/mL: MIC [6] | MIC [9]

O=C(N/N=C/c1ccc(/C=C/C(=O)c2ccc(Cl)cc2Cl)cc1)c1ccncc1
> 64 µg/mL: MIC [3] | MIC [13]
83.8%: inhibition in vivo at 100 mg/kg [12]
4 µg/mL: MIC [10]
8 µg/mL: MIC [2]
32 µg/mL: MIC [5] | MIC [7] | MIC [11]
16 µg/mL: MIC [1] | MIC [4] | MIC [6] | MIC [8] | MIC [9] | MIC [14]

CCn1cc(C(=O)O)c(=O)c2cc(F)c(N3CCNCC3)cc21 [NORFLOXACIN]
4 µg/mL: MIC [6]
8 µg/mL: MIC [9]
> 64 µg/mL: MIC [1] | MIC [4]

N=C(N)N/N=C/c1ccc(/C=C/C(=O)c2ccccc2F)cc1
91.7%: inhibition in vivo at 100 mg/kg [12]
16 µg/mL: MIC [7]
8 µg/mL: MIC [1] | MIC [4] | MIC [5] | MIC [8] | MIC [9] | MIC [10] | MIC [11] | MIC [14]
4 µg/mL: MIC [2] | MIC [3] | MIC [6] | MIC [13]

O=C(N/N=C/c1ccc(/C=C/C(=O)c2ccccc2Cl)cc1)c1cccc(Cl)c1
43%: inhibition in vivo at 100 mg/kg [12]
> 64 µg/mL: MIC [3] | MIC [5] | MIC [7] | MIC [10] | MIC [11] | MIC [13]
32 µg/mL: MIC [1] | MIC [2] | MIC [4] | MIC [6] | MIC [8] | MIC [9] | MIC [14]

N=C(N)N/N=C/c1ccc(/C=C/C(=O)c2cccc(Cl)c2)cc1
80.7%: inhibition in vivo at 100 mg/kg [12]
4 µg/mL: MIC [2] | MIC [4] | MIC [5] | MIC [8] | MIC [9] | MIC [10] | MIC [11] | MIC [13] | MIC [14]
8 µg/mL: MIC [1] | MIC [7]
2 µg/mL: MIC [3] | MIC [6]

O=C(/C=C/c1ccc(/C=N/NC(=O)c2ccncc2)cc1)c1ccc(F)cc1
51.1%: inhibition in vivo at 100 mg/kg [12]
64 µg/mL: MIC [5] | MIC [7] | MIC [8] | MIC [11]
32 µg/mL: MIC [1] | MIC [2] | MIC [4] | MIC [6] | MIC [9] | MIC [14]
> 64 µg/mL: MIC [3] | MIC [10] | MIC [13]

O=C(N/N=C/c1ccc(/C=C/C(=O)c2ccccc2Br)cc1)c1ccccc1
> 64 µg/mL: MIC [1] | MIC [2] | MIC [3] | MIC [4] | MIC [5] | MIC [6] | MIC [7] | MIC [8] | MIC [9] | MIC [10] | MIC [11] | MIC [13] | MIC [14]

Cc1ccc(C(=O)/C=C/c2ccc(/C=N/NC(=N)N)cc2)cc1
2 µg/mL: MIC [6] | MIC [10] | MIC [13]
8 µg/mL: MIC [7] | MIC [9] | MIC [11]
77.7%: inhibition in vivo at 100 mg/kg [12]
4 µg/mL: MIC [1] | MIC [2] | MIC [3] | MIC [4] | MIC [5] | MIC [8] | MIC [14]

OC(Cn1cncn1)(Cn1cncn1)c1ccc(F)cc1F [FLUCONAZOLE]
1 µg/mL: MIC [10]

Cc1ccc(C(=O)/C=C/c2ccc(/C=N/NC(=N)N)cc2)c(C)c1
4 µg/mL: MIC [2] | MIC [6] | MIC [13]
64.2%: inhibition in vivo at 100 mg/kg [12]
8 µg/mL: MIC [1] | MIC [3] | MIC [4] | MIC [5] | MIC [7] | MIC [8] | MIC [9] | MIC [10] | MIC [11] | MIC [14]

N=C(N)N/N=C/c1ccc(/C=C/C(=O)c2ccc(F)cc2)cc1
90.7%: inhibition in vivo at 100 mg/kg [12]
8 µg/mL: MIC [1] | MIC [4] | MIC [7] | MIC [8] | MIC [9] | MIC [11] | MIC [14]
4 µg/mL: MIC [2] | MIC [3] | MIC [5] | MIC [6] | MIC [10] | MIC [13]

Cc1ccc(C(=O)/C=C/c2ccc(/C=N/NC(=O)c3ccccc3)cc2)c(C)c1
0.18%: inhibition in vivo at 100 mg/kg [12]
> 64 µg/mL: MIC [1] | MIC [2] | MIC [3] | MIC [4] | MIC [5] | MIC [6] | MIC [7] | MIC [8] | MIC [9] | MIC [10] | MIC [11] | MIC [13] | MIC [14]

N=C(N)N/N=C/c1ccc(/C=C/C(=O)c2ccc(Br)cc2)cc1
8 µg/mL: MIC [9]
16 µg/mL: MIC [1]
2 µg/mL: MIC [2] | MIC [3] | MIC [5] | MIC [6] | MIC [10] | MIC [13]
4 µg/mL: MIC [4] | MIC [8] | MIC [11] | MIC [14]
68.9%: inhibition in vivo at 100 mg/kg [12]
32 µg/mL: MIC [7]

Cc1onc(-c2ccccc2)c1C(=O)N[C@@H]1C(=O)N2[C@@H]1SC(C)(C)[C@@H]2C(=O)O [OXACILLIN]
1 µg/mL: MIC [1] | MIC [4]
> 64 µg/mL: MIC [6] | MIC [9]

COc1c(N2C[C@@H]3CCCN[C@@H]3C2)c(F)cc2c(=O)c(C(=O)O)cn(C3CC3)c12 [MOXIFLOXACIN]
2 µg/mL: MIC [8]
1 µg/mL: MIC [3]
128 µg/mL: MIC [7]
0.25 µg/mL: MIC [2] | MIC [11]

O=C(/C=C/c1ccc(/C=N/NC(=O)c2cccc(Cl)c2)cc1)c1ccc(Cl)cc1
32 µg/mL: MIC [1] | MIC [2] | MIC [4] | MIC [5] | MIC [6] | MIC [7] | MIC [8] | MIC [9] | MIC [14]
> 64 µg/mL: MIC [3] | MIC [10] | MIC [11] | MIC [13]

CC(C)Cc1ccc(C(C)C(=O)O)cc1 (centres undefined) [IBUPROFEN]
87.4%: inhibition in vivo at 100 mg/kg [12]

COc1c(N2CCNC(C)C2)c(F)cc2c(=O)c(C(=O)O)cn(C3CC3)c12 (centres undefined) [GATIFLOXACIN]
8 µg/mL: MIC [4]
0.5 µg/mL: MIC [11]
0.25 µg/mL: MIC [2]
2 µg/mL: MIC [3] | MIC [5] | MIC [6] | MIC [9] | MIC [14]
4 µg/mL: MIC [1] | MIC [8]
16 µg/mL: MIC [7]
1 µg/mL: MIC [13]

O=C(N/N=C/c1ccc(/C=C/C(=O)c2ccccc2Cl)cc1)c1ccccc1
64 µg/mL: MIC [1] | MIC [4] | MIC [6] | MIC [8] | MIC [9] | MIC [14]
> 64 µg/mL: MIC [2] | MIC [3] | MIC [5] | MIC [7] | MIC [10] | MIC [11] | MIC [13]

O=C(/C=C/c1ccc(/C=N/NC(=O)c2cccc(Cl)c2)cc1)c1cccc(Cl)c1
> 64 µg/mL: MIC [3] | MIC [10] | MIC [11] | MIC [13]
32 µg/mL: MIC [1] | MIC [2] | MIC [4] | MIC [5] | MIC [6] | MIC [7] | MIC [8] | MIC [9] | MIC [14]
